What was measured:
STAT3 = STAT3 reporter gene assay (luciferase), LNCaP stable cell line pSTAT3-TA-luc, IL-6 stimulation; format: cell-based, human; conditions: Homo sapiens
Experimental: 1-1) Experiment on the Inhibition of STAT3 Activity
A human prostate cancer cell line (LNCaP stable cell line; plasmid pSTAT3-TA-luc), which contains a stably operating STAT3 promoter, was cultured in RPMI1640 medium (Cat No. 11875, Life Technologies) containing 10% fetal bovine serum (FBS) (Cat No. SH30396, Thermo Scientific) and 150 μg/mL G-418 solution (Cat No. 04 727 894 001, Roche). The reporter gene assay using LNCaP stable cell line was performed in RPMI1640 medium containing 3% DCC-FBS without G-418 solution. LNCaP stable cells were plated in two (2) white 96-well plates with 30,000 cells/50 μL in each well. The cells were cultured at 37° C., under 5% CO2 for 24 hours, and then treated with the compounds listed in Examples which were diluted in various concentrations. Subsequently, IL-6 was added to each well with a final concentration of 10 ng/mL. Upon completion of the treatment with the compounds and IL-6, the cells were cultured at 37° C., under 5% CO2 for 24 hours. The plates were observed under microscope and drug precipitation and particular findings were investigated and recorded.
(§1) The luciferase assay and the cell viability assay were performed respectively with one of the two plates. For the luciferase assay, the liquid media in the 96-well plate was removed, and then, 20 μL, of passive cell lysis buffer was added to each well. After shaking the plate for 30 minutes, luciferase activities of each well were measured in a PHERAstar™ microplate reader (BMG LABTECH) using a luciferase assay system (Cat No. E1501, Promega). For the cell viability assay, the 96-well plate was placed at room temperature for 30 minutes, added with 20 μL/well of CellTiter-Glo solution (Cat No. G7573, Promega), and shaken for 10 minutes in order to measure cytotoxicity caused by the compounds listed in Examples with a PHERAstar™ microplate reader (BMG LABTECH). Wells without 0.1% DMSO and stimulation were used as a negative control and wells with 0.1% DMSO and stimulation were used as a positive control.
(§2) The results of evaluation on the inhibitory effect of the compounds listed in the Examples on the dimerization of STAT3 and STAT1 obtained via the STAT3 and STAT1 reporter gene assays are shown in Table 9 below.

STAT1 = STAT1 reporter gene assay (luciferase), U2OS stable cell line pGL4-STAT1-TA-luc, IFN-γ stimulation; format: cell-based, human; conditions: Homo sapiens, IFN-γ 50 ng/mL, 8 hours, read-out: IC50 (μM) pSTAT1
Experimental: 1-2) Experiment on the Inhibition of STAT1 Activity
A human osteosarcoma cell line (U2OS stable cell line; pGL4-STAT1-TA-luc), which contains a stably operating STAT1 promoter, was cultured in McCoy 5′A medium (Cat No. 16600, Life Technologies) containing 10% FBS (Cat No. SH30396, Thermo Scientific) and 1000 μg/mL G418 solution (Cat No. 04 727 894 001, Roche). The reporter gene assay using U2OS stable cell line was performed in McCoy 5′A medium containing 10% FBS without G-418 solution. U2OS stable cells were plated in two (2) white 96-well plates with 25,000 cells/50 pt in each well. The cells were cultured at 37° C., under 5% CO2 for 24 hours, and then treated with the compounds listed in Examples which were diluted in various concentrations. Subsequently, IFN-γ was added to each well with a final concentration of 50 ng/mL. Upon completion of the treatment with the compounds and IFN-γ, the cells were cultured at 37° C., under 5% CO2 for 8 hours. The plates were observed under microscope and drug precipitation and particular findings were investigated and recorded.
as §1, with “of” for “of the”, “μL” for “μL,”
as §2

[1] = tested on: NCI-N87 stomach cancer cell line; assay: Cell growth inhibition assay, NCI-N87 (CellTiter-Glo); format: cell-based; conditions: Homo sapiens; NCI-N87, 5,000 cells/well, 96 hours
Experimental: The inhibitory effects of the compounds of the present invention against the growth of cancer cells were evaluated as shown below. The cancer cell lines including prostate cancer cell lines (LNCaP, DU-145), stomach cancer cell line (NCI-N87), and breast cancer cell lines (MDA-MB-468) were cultured under the protocol provided by each supplier. A medium supplemented with 10 ng/mL of IL-6 was used for LNCaP, a prostate cancer cell line, when treated with a drug. Each type of cells to be used in experiments was sub-cultured in a 96-well plate by counting the exact number of cells using Tali™ Image-based Cytometer (Life Technologies). In a 96-well plate, DU-145 was employed with 3,000 cells/well; NCI-N87 was employed with 5,000 cells/well; and LNCaP and MDA-MB-468 were employed with 10,000 cells/well. The cells were treated with the compounds listed in Examples which were diluted in various concentrations. Upon completion of the compounds treatment, LNCaP, DU-145, NCI-N87 cells were cultured at 37° C. under 5% CO2 for 96 hours, and MDA-MB-468 cells were cultured at 37° C. in air for 96 hours. Subsequently, the cells were observed under microscope and drug precipitation and particular findings were investigated and recorded. And then, the 96-well plate was placed at room temperature for 30 minutes, added with 20 pt/well of CellTiter-Glo solution (Cat No. G7573, Promega) and shaken for 10 minutes, followed by being subjected to the measurement using PHERAstar™ microplate reader (BMG LABTECH) according to the supplier's general luminometer protocol. Wells where only culture liquid added without cell plating were used as a negative control, whereas wells where culture liquid containing 0.1% DMSO instead of the compounds listed in Examples were used as a positive control.

Structure (SMILES)	IC50 (STAT3)	IC50 (STAT1)	IC50 [1]
CC(C)(c1ccc2sc(C(=O)Nc3cc(Cl)nc(N4CCN5CCCCC5C4)c3)cc2c1)S(C)(=O)=O (stereo not drawn) [Example 106, N-(2-chloro-6-(octahydro-2H-pyrido[1,2-a]pyrazin-2-yl)pyridin-4-yl)-5-(2-(methylsulfonyl)propan-2-yl)benzo[b]thiophene-2-carboxamide]	0.43 µM	8.5 µM	1.8 µM
CC#CCOc1cc(OC(F)(F)F)cc(C(C)(C)c2cc(Cl)cc(NC(=O)c3cc4cc(C(C)(C)S(C)(=O)=O)ccc4s3)c2)c1 [Example 10, N-(3-(2-(3-(but-2-yn-1-yloxy)-5-(trifluoromethoxy)phenyl)propan-2-yl)-5-chlorophenyl)-5-(2-(methylsulfonyl)propan-2-yl)benzo[b]thiophene-2-carboxamide]	0.018 µM	> 50 µM	0.01 µM
O=C(Nc1cc(Cl)nc(Oc2ccc(Cl)cc2)c1)c1cc2cc(C3CCCS3(=O)=O)ccc2s1 (stereo not drawn) [Example 73, N-(2-chloro-6-(4-chlorophenoxy)pyridin-4-yl)-5-(1,1-dioxidotetrahydrothiophen-2-yl)benzo[b]thiophene-2-carboxamide]	0.13 µM	> 50 µM	0.45 µM
CC(C)Oc1cc(OC(F)(F)F)cc(C(C)(C)c2cc(Br)cc(NC(=O)c3cc4cc(C(C)(C)S(C)(=O)=O)ccc4s3)c2)c1 [Example 9, N-(3-bromo-5-(2-(3-isopropoxy-5-(trifluoromethoxy)phenyl)propan-2-yl)phenyl)-5-(2-(methylsulfonyl)propan-2-yl)benzo[b]thiophene-2-carboxamide]	0.00065 µM	> 50 µM	0.02 µM
CC(C)(c1ccc2sc(C(=O)Nc3cc(Br)cc(Oc4ccc(Cl)cc4)c3)cc2c1)S(C)(=O)=O [Example 39, N-(3-bromo-5-(4-chlorophenoxy)phenyl)-5-(2-(methylsulfonyl)propan-2-yl)benzo[b]thiophene-2-carboxamide]	0.0089 µM	> 50 µM	0.031 µM
CC(C)(c1ccc2sc(C(=O)N3CCOc4c(Cl)cc(Oc5ccc(Cl)cc5)cc43)cc2c1)S(C)(=O)=O [Example 96, (8-chloro-6-(4-chlorophenoxy)-2,3-dihydro-4H-benzo[b][1,4]oxazin-4-yl)(5-(2-(methylsulfonyl)propan-2-yl)benzo[b]thiophen-2-yl)methanone]	0.19 µM	> 50 µM	1.5 µM
CC(C)(c1cc(Cl)cc(NC(=O)c2cc3cc(C(C)(C)S(C)(=O)=O)ccc3s2)c1)c1cc(OCC(F)(F)F)cc(OC(F)(F)F)c1 [Example 12, N-(3-chloro-5-(2-(3-(2,2,2-trifluoroethoxy)-5-(trifluoromethoxy)phenyl)propan-2-yl)phenyl)-5-(2-(methylsulfonyl)propan-2-yl)benzo[b]thiophene-2-carboxamide]	0.002 µM	> 50 µM	0.025 µM
Cc1nn(C)c(C)c1Oc1cc(NC(=O)c2cc3cc(C(C)(C)S(C)(=O)=O)ccc3s2)cc(Cl)n1 [Example 111, N-(2-chloro-6-((1,3,5-trimethyl-1H-pyrazol-4-yl)oxy)pyridin-4-yl)-5-(2-(methylsulfonyl)propan-2-yl)benzo[b]thiophene-2-carboxamide]	1.3 µM	> 50 µM	2.4 µM

Further lines, results first:

IC50 (STAT3)	IC50 (STAT1)	IC50 [1]	Structure (SMILES)
0.32 µM	18.9 µM	1 µM	Cn1cc(Oc2cc(NC(=O)c3cc4cc(C(C)(C)S(C)(=O)=O)ccc4s3)cc(Cl)n2)cn1 [Example 112, N-(2-chloro-6-((1-methyl-1H-pyrazol-4-yl)oxy)pyridin-4-yl)-5-(2-(methylsulfonyl)propan-2-yl)benzo[b]thiophene-2-carboxamide]
0.027 µM	> 50 µM	0.2 µM	COCCS(=O)(=O)C(C)(C)c1ccc2sc(C(=O)Nc3cc(Cl)cc(Oc4ccc(Cl)cc4)c3)cc2c1 [Example 57, N-(3-chloro-5-(4-chlorophenoxy)phenyl)-5-(2-((2-methoxyethyl)sulfonyl)propan-2-yl)benzo[b]thiophene-2-carboxamide]
0.18 µM	> 50 µM	0.27 µM	Cc1noc(C)c1Oc1cc(NC(=O)c2cc3cc(C(C)(C)S(C)(=O)=O)ccc3s2)cc(Cl)n1 [Example 113, N-(2-chloro-6-((3,5-dimethylisoxazol-4-yl)oxy)pyridin-4-yl)-5-(2-(methylsulfonyl)propan-2-yl)benzo[b]thiophene-2-carboxamide]
> 10 µM	33.5 µM	5.5 µM	CCN1CCC2(CCN(c3cc(NC(=O)c4cc5cc(C(C)(C)S(C)(=O)=O)ccc5s4)cc(Cl)n3)C2)C1 (stereo not drawn) [Example 107, N-(2-chloro-6-(7-ethyl-2,7-diazaspiro[4.4]nonan-2-yl)pyridin-4-yl)-5-(2-(methylsulfonyl)propan-2-yl)benzo[b]thiophene-2-carboxamide]
1.4 µM	8.7 µM	1.7 µM	CC(C)(c1ccc2sc(C(=O)Nc3cc(Cl)nc(N4CCN5CCCC5C4)c3)cc2c1)S(C)(=O)=O (stereo not drawn) [Example 104, N-(2-chloro-6-(hexahydropyrrolo[1,2-a]pyrazin-2(1H)-yl)pyridin-4-yl)-5-(2-(methylsulfonyl)propan-2-yl)benzo[b]thiophene-2-carboxamide]
0.01 µM	> 50 µM	0.015 µM	CC(C)(c1ccc2sc(C(=O)Nc3cc(Br)nc(Oc4ccc(Cl)cc4)c3)cc2c1)S(C)(=O)=O [Example 69, N-(2-bromo-6-(4-chlorophenoxy)pyridin-4-yl)-5-(2-(methylsulfonyl)propan-2-yl)benzo[b]thiophene-2-carboxamide]
0.01 µM	> 50 µM	0.028 µM	CC(C)(c1cc(Cl)cc(NC(=O)c2cc3cc(C(C)(C)S(C)(=O)=O)ccc3s2)c1)c1cc(OCC(F)F)cc(OC(F)(F)F)c1 [Example 13, N-(3-chloro-5-(2-(3-(2,2-difluoroethoxy)-5-(trifluoromethoxy)phenyl)propan-2-yl)phenyl)-5-(2-(methylsulfonyl)propan-2-yl)benzo[b]thiophene-2-carboxamide]

— US10023591B2, “Heterocyclic derivatives and use thereof” (C&C RESEARCH LABORATORIES, priority 2014, dated 2018)
